Paper PMC10445290, “Enantiomeric Fractions Reveal Differences in the Atropselective Disposition of 2,2′,3,5′,6-Pentachlorobiphenyl (PCB 95) in Wildtype, Cyp2abfgs-Null, and CYP2A6-Humanized Mice” (Chemical Research in Toxicology, 2023)
Where two headings read alike, the source gives them in different places.

Assay: Levels of PCB 95 and its hydroxylated metabolites in adipose, blood, brain and liver 24 h after a single oral dose (GC-MS/MS)
Format: in vivo, mice
Conditions: 1 mg/kg, single oral PCB 95 1.0 mg/kg, mean ± SD; for concentration at 24 h: mouse, po
Protocol: Adult male and female wild-type (WT) C57BL/6 mice, KO, and KI mice (4 months old) were exposed to racemic PCB 95. Mice were randomly assigned to exposure groups and received a single oral dose of PCB 95 (1.0 mg/kg) in stripped corn oil (10 mL/kg; lot# A0395699; cat# 801-03-7; Fisher Scientific) via gavage (5–7 mice per group). Control animals received corn oil alone (1–3 mice per group) to assess the potential background contamination with PCB 95. Animals were euthanized 24 h after PCB 95 exposure. Blood was collected from the heart and placed in pre-weighed glass vials with 80 μL of ethylenediaminetetraacetic acid solution (EDTA, 7.5%, w/w). The amount of blood in each vial was determined by weight prior to sample extraction. Adipose, brain, and liver tissues were excised from each animal and individually wrapped in aluminum foil. Samples were stored at −80 °C in separate plastic bags and shipped on dry ice to the University of Iowa for analysis.
PCB 95 and its hydroxylated metabolites were extracted from adipose (0.06 ± 0.01 g), brain (0.19 ± 0.03 g) and liver tissues (0.49 ± 0.07 g) by pressurized liquid extraction (PLE) with a Dionex ASE200 system (Dionex, Sunnyvale, CA, USA).[45] Tissues were homogenized with 2 g of pre-cleaned diatomaceous earth (Thermo Fisher Scientific, Pittsburgh, PA, USA) and placed in extraction cells loaded with 10 g of pre-extracted Florisil (60–100 mesh, Fisher Scientific, Pittsburgh, PA, USA). Tissue samples were then spiked with recovery standards [50 ng of PCB 117 in 50 μL of isooctane and 50 ng of 4′-159 (2′,3,3′,5,5′,6′-hexachlorobiphenyl-4-ol) in 50 μL of methanol]. For ongoing precision recovery (OPR) samples; recovery standard, internal standard, PCB 95, and its metabolites (50 ng each) were spiked to the method blank (DE only) and tissues from control animals. Cells were extracted with hexane–dichloromethane–methanol (48:43:9, v/v/v) at 100 °C and 1500 psi (10 MPa), with preheat equilibration for 6 min, 60% of cell flush volume, and 1 static cycle of 5 min. The extracts were concentrated to approximately 1 mL with a TurboVap II (Biotage, LLC, NC, USA) and transferred to new glass tubes with 1 mL of hexane. The solvent was evaporated to near dryness under a gentle stream of nitrogen, and extracts were redissolved in 1 mL of hexane.
PCB 95 and its hydroxylated metabolites were extracted from whole blood (0.45 ± 0.13 g) using a published liquid–liquid extraction procedure.[29] Briefly, blood samples were thawed, and 3 mL of aqueous 1% KCl solution was added to each sample. Recovery standards (50 ng of PCB 117 in 50 μL of isooctane and 50 ng of 4′-159 in 50 μL of methanol) were spiked to all samples, including OPR samples, before extraction. Subsequently, 1 mL of 6 M HCl, 5 mL of 2-propanol, and 5 mL of 1:1 hexane–MTBE mixture (v/v) were added to the blood samples. The samples were inverted for 5 min and centrifuged at 1690g for 5 min to facilitate the phase separation. Next, the organic phases were transferred to new glass tubes, and the aqueous phases were re-extracted with 3 mL of hexane. Next, three mL of aqueous 1% KCl were added to the combined organic extracts, and samples were inverted and centrifuged as described above. The organic phase was transferred to a new tube, and the aqueous phase was re-extracted with 3 mL of hexane. The combined organic extracts were evaporated to near dryness using a Savant SpeedVac SPD210 (Thermo Scientific, Waltham, MA, US), and each sample was reconstituted with 0.5 mL of hexane.
Five drops of methanol and 0.5 mL of diazomethane (CH2N2; about 0.1 mmol) in diethyl ether were added to the tissue or blood extracts to derivatize the OH-PCBs.[45] Diazomethane rapidly converts the phenolic hydroxyl groups of OH-PCBs to methoxy groups (i.e., −OH → −OCH3). All samples were stored at 4 °C for approximately 16 h. Excess diazomethane evaporated under a gentle stream of nitrogen in a fume hood, followed by adding 0.5 mL of hexane. […]

[1] = female, C57BL/6 (wild-type), adipose, FWT, female wildtype mice, read-out: Levels in adipose
[2] = female, C57BL/6 (wild-type), liver, FWT, female wildtype mice, read-out: Levels in liver
[3] = female, C57BL/6 (wild-type), whole blood, FWT, female wildtype mice, read-out: Levels in blood
[4] = female, CYP2A6-humanized (KI), liver, FKI, female CYP2A6-humanized mice, read-out: Levels in liver
[5] = female, CYP2A6-humanized (KI), whole blood, FKI, female CYP2A6-humanized mice, read-out: Levels in blood
[6] = female, Cyp2abfgs-null (KO), liver, FKO, female Cyp2abfgs-null mice, read-out: Levels in liver
[7] = female, Cyp2abfgs-null (KO), whole blood, FKO, female Cyp2abfgs-null mice, read-out: Levels in blood
[8] = male, C57BL/6 (wild-type), liver, MWT, male wildtype mice, read-out: Levels in liver
[9] = male, C57BL/6 (wild-type), whole blood, MWT, male wildtype mice, read-out: Levels in blood
[10] = male, CYP2A6-humanized (KI), liver, MKI, male CYP2A6-humanized mice, read-out: Levels in liver
[11] = male, CYP2A6-humanized (KI), whole blood, MKI, male CYP2A6-humanized mice, read-out: Levels in blood
[12] = male, Cyp2abfgs-null (KO), adipose, MKO, male Cyp2abfgs-null mice, read-out: Levels in adipose
[13] = male, Cyp2abfgs-null (KO), liver, MKO, male Cyp2abfgs-null mice, read-out: Levels in liver
[14] = male, Cyp2abfgs-null (KO), whole blood, MKO, male Cyp2abfgs-null mice, read-out: Levels in blood
[15] = male, C57BL/6 (wild-type), adipose, MWT, male wildtype mice, read-out: Levels in adipose
[16] = male, CYP2A6-humanized (KI), adipose, MKI, male CYP2A6-humanized mice, read-out: Levels in adipose
[17] = female, C57BL/6 (wild-type), brain, FWT, female wildtype mice, read-out: Levels in brain
[18] = female, CYP2A6-humanized (KI), adipose, FKI, female CYP2A6-humanized mice, read-out: Levels in adipose
[19] = female, Cyp2abfgs-null (KO), adipose, FKO, female Cyp2abfgs-null mice, read-out: Levels in adipose

Row | Compound | concentration at 24 h [1] | concentration at 24 h [2] | concentration at 24 h [3] | concentration at 24 h [4] | concentration at 24 h [5] | concentration at 24 h [6] | concentration at 24 h [7] | concentration at 24 h [8] | concentration at 24 h [9] | concentration at 24 h [10] | concentration at 24 h [11] | concentration at 24 h [12] | concentration at 24 h [13] | concentration at 24 h [14] | concentration at 24 h [15] | concentration at 24 h [16] | concentration at 24 h [17] | concentration at 24 h [18] | concentration at 24 h [19] | also measured
1 | Oc1c(Cl)cc(Cl)c(-c2cc(Cl)ccc2Cl)c1Cl [3-103, 2,2',4,5',6-pentachlorobiphenyl-3-ol] | 0.7 ng/g | 1.2 ± 0.4 ng/g | 1 ± 0.5 ng/g | 1 ± 0.4 ng/g | 1.1 ± 1.2 ng/g | 1.8 ± 0.4 ng/g | 0.8 ± 0.3 ng/g | 0.7 ± 0.3 ng/g | 0.6 ± 0.2 ng/g | 0.6 ± 0.2 ng/g | 0.4 ± 0.1 ng/g | 1.5 ± 0.7 ng/g | 1 ± 0.4 ng/g | 0.5 ± 0.1 ng/g |  |  |  |  |  | 
2 | Oc1cc(Cl)c(-c2cc(Cl)ccc2Cl)c(Cl)c1Cl [4-95, 2,2',3,5',6-pentachlorobiphenyl-4-ol] | 0.4 ± 0.1 ng/g | 1 ± 0.6 ng/g | 1.5 ± 0.5 ng/g | 0.4 ± 0.1 ng/g | 1 ± 0.8 ng/g | 0.4 ± 0.3 ng/g | 0.4 ± 0.3 ng/g | 2 ± 0.8 ng/g | 3.2 ± 1.1 ng/g | 0.8 ± 0.5 ng/g | 1.1 ± 0.6 ng/g | 0.4 ± 0.1 ng/g | 1.1 ± 0.9 ng/g | 1.5 ± 0.8 ng/g | 0.5 ± 0.3 ng/g | 0.3 ng/g |  |  |  | Levels in liver (FKI, female CYP2A6-humanized mice): 0.4 ng/g tissue
3 | Oc1cc(Cl)c(Cl)c(-c2cc(Cl)ccc2Cl)c1Cl [5-95, 2,2',3,5',6-pentachlorobiphenyl-5-ol] | 1.3 ± 1.1 ng/g | 3.8 ± 1.6 ng/g | 0.9 ± 0.6 ng/g | 5.5 ± 3.1 ng/g | 1.9 ± 1.6 ng/g | 6.2 ± 1.1 ng/g | 0.7 ± 0.3 ng/g | 3.3 ± 1.6 ng/g | 1.1 ± 0.3 ng/g | 3.3 ± 2.1 ng/g | 0.6 ± 0.3 ng/g | 3.5 ± 4.8 ng/g | 3.7 ± 1.6 ng/g | 0.7 ± 0.3 ng/g | 1.8 ± 1 ng/g | 0.8 ± 0.5 ng/g | 0.25 ± 0.02 ng/g | 1.1 ± 0.4 ng/g | 1 ± 0.4 ng/g | 
4 | Oc1c(O)c(Cl)c(-c2cc(Cl)ccc2Cl)c(Cl)c1Cl [4,5-95, 2,2',3,5',6-pentachlorobiphenyl-4,5-diol] | 0.9 ± 0.2 ng/g | 2.2 ± 0.9 ng/g | 5.2 ± 1.9 ng/g | 1.7 ± 0.3 ng/g | 5.2 ± 4.8 ng/g | 1.2 ± 0.7 ng/g | 1.4 ± 0.7 ng/g | 3.4 ± 1.2 ng/g | 9.1 ± 2.6 ng/g | 1.7 ± 0.8 ng/g | 3.6 ± 1.3 ng/g | 1.9 ± 0.8 ng/g | 2.8 ± 1.6 ng/g | 5.3 ± 3.8 ng/g | 0.9 ± 0.2 ng/g | 0.7 ± 0.2 ng/g |  | 1 ± 0.6 ng/g | 1.6 ng/g | 
5 | Oc1cc(Cl)c(-c2c(Cl)ccc(Cl)c2Cl)cc1Cl [4'-95] | 1.4 ± 0.6 ng/g | 3.7 ± 1.8 ng/g | 2.2 ± 1 ng/g | 4.5 ± 2.6 ng/g | 3.4 ± 2.5 ng/g | 8.5 ± 3.9 ng/g | 2.2 ± 1.2 ng/g | 5.7 ± 2.8 ng/g | 3.5 ± 1.1 ng/g | 3.8 ± 2.1 ng/g | 1.3 ± 0.7 ng/g | 2.5 ± 1.7 ng/g | 7.7 ± 3.6 ng/g | 2.8 ± 0.9 ng/g | 2.1 ± 0.8 ng/g | 1.1 ± 0.2 ng/g | 0.3 ng/g | 1.1 ± 0.3 ng/g | 1.5 ± 0.4 ng/g | Levels in liver (FKO, female Cyp2abfgs-null mice): 8.5 ng/g tissue; concentration at 24 h (male, Cyp2abfgs-null (KO), brain, MKO, male Cyp2abfgs-null mice, read-out: Levels in brain): 0.2 ng/g
